How the values were obtained:
Type in all cases: in vivo
[1] = system: Arrowhead sp. (Sagittaria pygmaea); assay: Submerged Soil Treatment Test (Pre-Emergence Treatment); details: 30 g ai/a, granule, observed 30 days later
Protocol: (§1) 1/5000-are Wagner pots were filled with soil. Seeds or tubers of barnyardgrass, bulrush and Sagittaria pygmaea were seeded or planted under submerged condition. Two pairs of rice seedlings (2-3 leaf stage), which had been reared in advance, were transplanted to each pot and were allowed to germinate in a green house. Each pair consisted of two rice seedlings. On day later (before emergence of weeds), each pot was treated with a granule which had been prepared by processing a predetermined amount of the test composition in accordance with a similar method to the method described in Formulation Example 9. The state of emergence of weeds and the state of injury of rice were observed 30 days later. In the table, the degrees of damages of the test plants and the degrees of injury of rice are shown in a similar manner to Example 2.

[2] = system: Barnyardgrass (Echinochloa crus-galli); assay: as above; details: 30 g ai/a, granule, observed 30 days later
Protocol: as §1

[3] = system: Bulrush (Scirpus juncoides); assay: as above; details: 30 g ai/a, granule, observed 30 days later
Protocol: as §1

[4] = system: Crabgrass (Digitaria adsendens); assay: Upland Soil Application Test; details: 30 g ai/a; soil application before emergence, wettable powder; observed 30 days later
Protocol: (§2) Resin-made 1/2500-are pots were filled with the soil of an upland field. After they were fertilized, soybean, corn and cotton were seeded and 2-3 cm soil covering was applied. Seeds of redroot pigweed, morningglory (Ipomoea purpurea), common lambsquarters, barnyardgrass, green foxtail, large crabgrass, foxtail meadow and johnsongrass had been uniformly mixed with the soil. They were allowed to germinate in a green house. One day later (before emergence of weeds), a wettable powder prepared from a predetermined amount of each test compound in a similar manner to the method described in Formulation Example 1 was diluted with water and then sprayed evenly at an application rate equal to 10 l per are onto the surface of the soil by means of a pressure-operated ULV (ultra low volume) sprayer. Influence to the crops and weeds were observed 30 days later. The results are shown in Table 3, in which the degree of damages of each test plant and the degree of injury to each crop were determined by comparing the air-dried weights of the test plant and crop with those of the corresponding plant and crop in untreated pots and are shown in accordance with the following standard: […]

[5] = system: Foxtail meadow; assay: Upland Soil Application Test; details: 30 g ai/a; soil application before emergence, wettable powder; observed 30 days later
Protocol: as §2

[6] = system: Redroot Pigweed; assay: Upland Soil Application Test; details: 30 g ai/a; soil application before emergence, wettable powder; observed 30 days later
Protocol: as §2

[7] = system: Foxtail (Setaria viridis); assay: Upland Soil Application Test; details: 30 g ai/a; soil application before emergence, wettable powder; observed 30 days later
Protocol: as §2

[8] = system: Barnyardgrass (Echinochloa crus-galli); assay: Upland Soil Application Test; details: 30 g ai/a; soil application before emergence, wettable powder; observed 30 days later
Protocol: as §2

[9] = system: Johnsongrass; assay: Upland Soil Application Test; details: 30 g ai/a; soil application before emergence, wettable powder; observed 30 days later
Protocol: as §2

[10] = system: Common lambsquarters; assay: Upland Soil Application Test; details: 30 g ai/a; soil application before emergence, wettable powder; observed 30 days later
Protocol: as §2

[11] = system: Soybean (Glycine max); assay: Upland Foliar Application Test, crop injury; details: 30 g ai/a; foliar application at 2-3 leaf stage, emulsion; observed on the 30th day
Text: (§3) Resin-made 1/10000-are pots were filled with the soil of an upland field. Redroot pigweed, morningglory (Ipomoea pupurea), common lambsquarters, foxtail meadow, johnsongrass, barnyardgrass, green foxtail, large crabgrass, soybean, corn and cotton were separately seeded and were allowed to germinate in a green house. When each plant grew to the stage of 2-3 leaves, an emulsion formulated from a predetermined amount of each test compound in a similar manner to the method described in Formulation Example 11 was diluted with water and then sprayed at a predetermined application rate by means of a pressure-operated ULV (ultra low volume) sprayer. The application rate was controlled at 5 l per are. Influence to the crops and weeds were observed on the 30th day after the spray of the herbicides. The results are shown in Table 4 in which the degree of damages of each test plant and the degree of injury to each crop are shown in a similar manner to Test 2.

[12] = system: Corn (Zea maize); assay: Upland Foliar Application Test, crop injury; details: 30 g ai/a; foliar application at 2-3 leaf stage, emulsion; observed on the 30th day
Text: as §3

[13] = system: Cotton (Gossypium indicum); assay: Upland Foliar Application Test, crop injury; details: 30 g ai/a; foliar application at 2-3 leaf stage, emulsion; observed on the 30th day
Text: as §3

[14] = system: Barnyardgrass (Echinochloa crus-galli); assay: Submerged Soil Treatment Test (Growth Stage Treatment); details: 30 g ai/a, growth stage treatment (barnyardgrass two-leaf stage), granule, observed 30 days later
Protocol: as §1, with “allowed to grow in a” for “allowed to germinate in a”, “rice seedlings. When the barnyardgrass grew to the two-leaf stage, each pot” for “rice seedlings. On day later (before emergence of weeds), each pot”, “injury of the rice are” for “injury of rice are”

[15] = system: Rice (Oryza sativa); assay: Submerged Soil Treatment Test (Growth Stage Treatment), crop injury; details: 30 g ai/a, growth stage treatment (barnyardgrass two-leaf stage), granule, transplanted rice, observed 30 days later
Protocol: as §1, with “allowed to grow in a” for “allowed to germinate in a”, “rice seedlings. When the barnyardgrass grew to the two-leaf stage, each pot” for “rice seedlings. On day later (before emergence of weeds), each pot”, “injury of the rice are” for “injury of rice are”

SMILES	Herbicidal effects Arrowhead sp. (Sagittaria pygmaea) [1]	Herbicidal effects Barnyardgrass (Echinochloa crus-galli) [2]	Herbicidal effects Bulrush (Scirpus juncoides) [3]	Herbicidal effects Crabgrass (Digitaria adsendens) [4]	Herbicidal effects Foxtail meadow [5]	Herbicidal effects Redroot Pigweed [6]	Herbicidal effects Foxtail (Setaria viridis) [7]	Herbicidal effects Barnyardgrass (Echinochloa crus-galli) [8]	Herbicidal effects Johnsongrass [9]	Herbicidal effects Common lambquarters [10]	Crop injury Soybean (Glycine max) [11]	Crop injury Corn (Zea maize) [12]	Crop injury Cotton (Gossypium indicum) [13]	Herbicidal effects Barnyardgrass (Echinochloa crus-galli) [14]	Crop injury Rice (Oryza sativa) [15]
CCOC(=O)c1ncccc1Oc1nc(OC)cc(OC)n1 [A, reference compound]	4 (6-10 (Severe damages))	5 (0-5 (Death))	5 (0-5 (Death))	4 (6-10 (Severe damages))	5 (0-5 (Death))	4 (6-10 (Severe damages))	5 (0-5 (Death))	3 (11-40 (Medium damages))	5 (0-5 (Death))	4 (6-10 (Severe damages))	5 (0-5 (Death))	5 (0-5 (Death))	5 (0-5 (Death))	5 (0-5 (Death))	5 (0-5 (Death))
COc1cc(OC)nc(Oc2ccccc2C=O)n1 [B, reference compound]	5 (0-5 (Death))	3 (11-40 (Medium damages))	3 (11-40 (Medium damages))	4 (6-10 (Severe damages))	4 (6-10 (Severe damages))	3 (11-40 (Medium damages))	4 (6-10 (Severe damages))	3 (11-40 (Medium damages))	4 (6-10 (Severe damages))	3 (11-40 (Medium damages))	5 (0-5 (Death))	5 (0-5 (Death))	5 (0-5 (Death))	5 (0-5 (Death))	5 (0-5 (Death))
COc1cc(OC)nc(Oc2cccnc2C=O)n1 [Compound No. 1, 4,6-dimethoxy-2-(2-formyl-3-pyridyloxy)pyrimidine]	4 (6-10 (Severe damages))	4 (6-10 (Severe damages))	4 (6-10 (Severe damages))	2 (41-70 (Small damages))	3 (11-40 (Medium damages))	3 (11-40 (Medium damages))	3 (11-40 (Medium damages))	3 (11-40 (Medium damages))	4 (6-10 (Severe damages))	2 (41-70 (Small damages))	1 (71-90 (Slight damages))	0 (91-100 (No damages))	0 (91-100 (No damages))	5 (0-5 (Death))	1 (71-90 (Slight damages))
COc1cc(OC)nc(Oc2cccnc2C(OC)OC)n1 [Compound No. 2, 3-(4.6-dimethoxy-2-pyrimidinyloxy)-2-pyridinecarboxaldehyde dimethylacetal]	5 (0-5 (Death))	5 (0-5 (Death))	5 (0-5 (Death))	5 (0-5 (Death))	5 (0-5 (Death))	4 (6-10 (Severe damages))	5 (0-5 (Death))	4 (6-10 (Severe damages))	5 (0-5 (Death))	5 (0-5 (Death))	0 (91-100 (No damages))	0 (91-100 (No damages))	0 (91-100 (No damages))	4 (6-10 (Severe damages))	0 (91-100 (No damages))
CCOC(OCC)c1ncccc1Oc1nc(OC)cc(OC)n1 [Compound No. 3, 3-(4,6-dimethoxy-2-pyrimidinyloxy)-2-pyridinecarboxaldehyde diethylacetal]	5 (0-5 (Death))	5 (0-5 (Death))	5 (0-5 (Death))	4 (6-10 (Severe damages))	5 (0-5 (Death))	5 (0-5 (Death))	4 (6-10 (Severe damages))	4 (6-10 (Severe damages))	5 (0-5 (Death))	5 (0-5 (Death))	0 (91-100 (No damages))	0 (91-100 (No damages))	0 (91-100 (No damages))	5 (0-5 (Death))	0 (91-100 (No damages))
CCCCOC(OCCCC)c1ncccc1Oc1nc(OC)cc(OC)n1 [Compound No. 4]	5 (0-5 (Death))	5 (0-5 (Death))	5 (0-5 (Death))	5 (0-5 (Death))	5 (0-5 (Death))	5 (0-5 (Death))	5 (0-5 (Death))	5 (0-5 (Death))	5 (0-5 (Death))	5 (0-5 (Death))	0 (91-100 (No damages))	0 (91-100 (No damages))	0 (91-100 (No damages))	5 (0-5 (Death))	0 (91-100 (No damages))
COc1cc(OC)nc(Oc2cccnc2C(OC)OC(C)C)n1 (stereo not drawn) [Compound No. 5, 3-(4.6-dimethoxy-2-pyrimidinyloxy)-2-pyridinecarboxaldehyde isopropylmethylacetal]	5 (0-5 (Death))	5 (0-5 (Death))	5 (0-5 (Death))	4 (6-10 (Severe damages))	5 (0-5 (Death))	5 (0-5 (Death))	5 (0-5 (Death))	4 (6-10 (Severe damages))	5 (0-5 (Death))	5 (0-5 (Death))	0 (91-100 (No damages))	0 (91-100 (No damages))	0 (91-100 (No damages))	5 (0-5 (Death))	0 (91-100 (No damages))
